Data reported in US9708314B2, “Heterocyclic amide compound” (NISSAN CHEMICAL INDUSTRIES, LTD., priority 2013, dated 2017).

What was measured:
Type in all cases: in vivo
[1] = test system: Echinochloa oryzacola Vasing.; assay: Test Example 1: herbicidal activity, application before weed generation in submerged conditions; conditions: Application herbicide amount 320 g/ha; Seventeenth Table
How it was run: (§1)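 Submerged pot test: alluvial soil, 4 cm water, seeds sown mixed, 2.5-leaf rice transplanted; emulsion in water applied to surface day of sowing, dose g/ha; greenhouse 25–30° C.; 3 wk; 0–5 rating.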

[2] = test system: Monochoria vaginalis; assay: as above; conditions: Application herbicide amount 320 g/ha; Seventeenth Table
How it was run: as §1

[3] = test system: Scirpus juncoides; assay: as above; conditions: Application herbicide amount 320 g/ha; Seventeenth Table
How it was run: as §1

[4] = test system: Setaria viridis; assay: Test Example 4: herbicidal effect by application to foliage (diluvial soil, plastic box); conditions: foliage application, 320 g/ha
How it was run: (§2)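 Read-out is a 0–5 visual grade of herbicidal ratio (5: ≥90%, almost withered; 0: ≤5%) taken three weeks after treatment. Compound was applied as a diluted emulsion to stem and leaf parts of 14-day greenhouse-grown plants (25° C. to 30° C.) at rates expressed as g/ha.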

[5] = test system: Galium spurium; assay: as above; conditions: foliage application, 320 g/ha
How it was run: as §2

[6] = test system: Abutilon theophrasti; assay: as above; conditions: foliage application, 320 g/ha
How it was run: as §2

[7] = test system: Amaranthus retroflexus; assay: as above; conditions: foliage application, 320 g/ha
How it was run: as §2

[8] = test system: Digitaria ciliaris; assay: as above; conditions: foliage application, 320 g/ha
How it was run: as §2

[9] = test system: Avena fatua; assay: as above; conditions: foliage application, 320 g/ha
How it was run: as §2

[10] = test system: Chenopodium album; assay: as above; conditions: foliage application, 320 g/ha
How it was run: as §2

[11] = test system: Echinochloa crus-galli var. crus-galli; assay: as above; conditions: foliage application, 320 g/ha
How it was run: as §2

[12] = test system: Alopecurus myosuroides; assay: as above; conditions: foliage application, 320 g/ha
How it was run: as §2

[13] = test system: Stellaria media; assay: as above; conditions: foliage application, 320 g/ha
How it was run: as §2

[14] = test system: Lolium multiflorum Lam.; assay: as above; conditions: foliage application, 320 g/ha
How it was run: as §2

[15] = test system: Apera spica-venti.; assay: as above; conditions: foliage application, 320 g/ha
How it was run: as §2

[16] = test system: Veronica persica; assay: as above; conditions: foliage application, 320 g/ha
How it was run: as §2

[17] = test system: Beta vulgaris ssp. vulgaris; assay: Test Example 4: effect on crop by application to foliage (diluvial soil, plastic box); conditions: foliage application, 320 g/ha
How it was run: as §2

[18] = test system: Zea mays; assay: as above; conditions: foliage application, 320 g/ha
How it was run: as §2

[19] = test system: Brassica campestris L.; assay: as above; conditions: foliage application, 320 g/ha
How it was run: as §2

[20] = test system: directly sowed Oryza sativa; assay: as above; conditions: foliage application, 320 g/ha
How it was run: as §2

[21] = test system: Triticum aestivum; assay: as above; conditions: foliage application, 320 g/ha
How it was run: as §2

[22] = test system: Glycine max; assay: as above; conditions: foliage application, 320 g/ha
How it was run: as §2

SMILES	A: Echinochloa oryzicola Vasing. (herbicidal effect grade) [1]	C: Monochoria vaginalis (herbicidal effect grade) [2]	B: Scirpus juncoides (herbicidal effect grade) [3]	G (Setaria viridis) herbicidal effect grade [4]	Q (Galium spurium) herbicidal effect grade [5]	M (Abutilon theophrasti) herbicidal effect grade [6]	N (Amaranthus retroflexus) herbicidal effect grade [7]	F (Digitaria ciliaris) herbicidal effect grade [8]	I (Avena fatua) herbicidal effect grade [9]	O (Chenopodium album) herbicidal effect grade [10]	H (Echinochloa crus-galli var. crus-galli) herbicidal effect grade [11]	J (Alopecurus myosuroides) herbicidal effect grade [12]	P (Stellaria media) herbicidal effect grade [13]	K (Lolium multiflorum Lam.) herbicidal effect grade [14]	L (Apera spica-venti.) herbicidal effect grade [15]	R (Veronica persica) herbicidal effect grade [16]	f (Beta vulgaris ssp. vulgaris) effect on crop grade [17]	b (Zea mays) effect on crop grade [18]	g (Brassica campestris L.) effect on crop grade [19]	d (directly sowed Oryza sativa) effect on crop grade [20]	also measured
Cn1nnnc1NC(=O)c1ccc(C(F)(F)F)n2c(C3=NOC(C)(C)C3)nnc12 [2-028]	5 (Herbicidal ratio of 90% or more (almost completely withered))	5 (Herbicidal ratio of 90% or more (almost completely withered))	5 (Herbicidal ratio of 90% or more (almost completely withered))	5 (Herbicidal ratio of 90% or more (almost completely withered))	4 (Herbicidal ratio of 70% or more and less than 90%)	5 (Herbicidal ratio of 90% or more (almost completely withered))	5 (Herbicidal ratio of 90% or more (almost completely withered))	5 (Herbicidal ratio of 90% or more (almost completely withered))	4 (Herbicidal ratio of 70% or more and less than 90%)	5 (Herbicidal ratio of 90% or more (almost completely withered))	5 (Herbicidal ratio of 90% or more (almost completely withered))	4 (Herbicidal ratio of 70% or more and less than 90%)	5 (Herbicidal ratio of 90% or more (almost completely withered))	4 (Herbicidal ratio of 70% or more and less than 90%)	5 (Herbicidal ratio of 90% or more (almost completely withered))	5 (Herbicidal ratio of 90% or more (almost completely withered))	5 (Herbicidal ratio of 90% or more (almost completely withered))	5 (Herbicidal ratio of 90% or more (almost completely withered))	5 (Herbicidal ratio of 90% or more (almost completely withered))	4 (Herbicidal ratio of 70% or more and less than 90%)	e (Triticum aestivum) effect on crop grade [21]: 4 (Herbicidal ratio of 70% or more and less than 90%); c (Glycine max) effect on crop grade [22]: 3 (Herbicidal ratio of 40% or more and less than 70%)
CSCc1nnc2c(C(=O)Nc3nnnn3C)ccc(C(F)(F)F)n12 [2-029]	5 (Herbicidal ratio of 90% or more (almost completely withered))	5 (Herbicidal ratio of 90% or more (almost completely withered))	5 (Herbicidal ratio of 90% or more (almost completely withered))	5 (Herbicidal ratio of 90% or more (almost completely withered))	4 (Herbicidal ratio of 70% or more and less than 90%)	5 (Herbicidal ratio of 90% or more (almost completely withered))	5 (Herbicidal ratio of 90% or more (almost completely withered))	5 (Herbicidal ratio of 90% or more (almost completely withered))	5 (Herbicidal ratio of 90% or more (almost completely withered))	5 (Herbicidal ratio of 90% or more (almost completely withered))	5 (Herbicidal ratio of 90% or more (almost completely withered))	5 (Herbicidal ratio of 90% or more (almost completely withered))	5 (Herbicidal ratio of 90% or more (almost completely withered))	5 (Herbicidal ratio of 90% or more (almost completely withered))	5 (Herbicidal ratio of 90% or more (almost completely withered))	5 (Herbicidal ratio of 90% or more (almost completely withered))	5 (Herbicidal ratio of 90% or more (almost completely withered))	5 (Herbicidal ratio of 90% or more (almost completely withered))	5 (Herbicidal ratio of 90% or more (almost completely withered))	5 (Herbicidal ratio of 90% or more (almost completely withered))	e (Triticum aestivum) effect on crop grade [21]: 5 (Herbicidal ratio of 90% or more (almost completely withered)); c (Glycine max) effect on crop grade [22]: 4 (Herbicidal ratio of 70% or more and less than 90%)
